In brackets after ≈: the same amount, converted by molar mass. Activity calls are given as the source filed them. The rule behind the calls is not given here.
Tests used:
Enterococcus faecalis = test: Antibacterial activity against Enterococcus faecalis MTCC 3382 after 24 hr by disk diffusion method; assay type: functional; conditions: for MIC: Enterococcus faecalis, MTCC 3382, 24 h
Aspergillus niger [1] = test: Induction of Aspergillus niger DNA cleavage at 50 ug after 2 hr by agarose gel electrophoresis
Escherichia coli [2] = test: Induction of Escherichia coli MTCC 1089 DNA cleavage at 50 ug after 2 hr by agarose gel electrophoresis
Staphylococcus aureus [3] = test: Induction of Staphylococcus aureus MTCC 3160 DNA cleavage at 50 ug after 2 hr by agarose gel electrophoresis
Fusarium oxysporum = test: Antifungal activity against Fusarium oxysporum after 3 to 4 days by serial dilution method; assay type: functional; conditions: for MIC: Fusarium oxysporum
Mucor fuscus = test: Antifungal activity against Mucor fuscus after 3 to 4 days by serial dilution method; assay type: functional; conditions: for MIC: Mucor fuscus
Penicillium chrysogenum = test: Antifungal activity against Penicillium chrysogenum after 3 to 4 days by serial dilution method; assay type: functional; conditions: for MIC: Penicillium chrysogenum
Aspergillus niger [4] = test: Antifungal activity against Aspergillus niger after 3 to 4 days by serial dilution method; assay type: functional; conditions: for MIC: Aspergillus niger
Candida albicans = test: Antifungal activity against Candida albicans after 3 to 4 days by serial dilution method; assay type: functional; conditions: for MIC: Candida albicans
Aspergillus fumigatus = test: Antifungal activity against Aspergillus fumigatus after 3 to 4 days by serial dilution method; assay type: functional; conditions: for MIC: Aspergillus fumigatus
Escherichia coli [5] = test: Antibacterial activity against Escherichia coli MTCC 1089 after 24 hr by disk diffusion method; assay type: functional; conditions: for MIC: Escherichia coli, MTCC 1089, 24 h
Klebsiella pneumoniae = test: Antibacterial activity against Klebsiella pneumoniae MTCC 3384 after 24 hr by disk diffusion method; assay type: functional; conditions: for MIC: Klebsiella pneumoniae, MTCC 3384, 24 h
Pseudomonas aeruginosa = test: Antibacterial activity against Pseudomonas aeruginosa MTCC 1034 after 24 hr by disk diffusion method; assay type: functional; conditions: for MIC: Pseudomonas aeruginosa, MTCC 1034, 24 h
Bacillus subtilis = test: Antibacterial activity against Bacillus subtilis MTCC 297 after 24 hr by disk diffusion method; assay type: functional; conditions: for MIC: Bacillus subtilis, MTCC 297, 24 h
Staphylococcus aureus [6] = test: Antibacterial activity against Staphylococcus aureus MTCC 3160 after 24 hr by disk diffusion method; assay type: functional; conditions: for MIC: Staphylococcus aureus, MTCC 3160, 24 h

| MIC (Enterococcus faecalis) [µg/mL] | Activity (Aspergillus niger [1]) | Activity (Escherichia coli [2]) | Activity (Staphylococcus aureus [3]) | MIC (Fusarium oxysporum) [µg/mL] | MIC (Mucor fuscus) [µg/mL] | MIC (Penicillium chrysogenum) [µg/mL] | MIC (Aspergillus niger [4]) [µg/mL] | MIC (Candida albicans) [µg/mL] | MIC (Aspergillus fumigatus) [µg/mL] | MIC (Escherichia coli [5]) [µg/mL] | Structure (SMILES) | inhibition zone (IZ) (Enterococcus faecalis) [mm] | inhibition zone (IZ) (Fusarium oxysporum) [mm] | inhibition zone (IZ) (Mucor fuscus) [mm] | inhibition zone (IZ) (Penicillium chrysogenum) [mm] | inhibition zone (IZ) (Aspergillus niger [4]) [mm] | inhibition zone (IZ) (Candida albicans) [mm] | inhibition zone (IZ) (Aspergillus fumigatus) [mm] | inhibition zone (IZ) (Escherichia coli [5]) [mm] | inhibition zone (IZ) (Klebsiella pneumoniae) [mm] | other results |
| --- | --- | --- | --- | --- | --- | --- | --- | --- | --- | --- | --- | --- | --- | --- | --- | --- | --- | --- | --- | --- | --- |
| 25 (≈ 47.5 µM) | inactive | inactive | inactive | 25 (≈ 47.5 µM) | 25 (≈ 47.5 µM) | 25 (≈ 47.5 µM) | 12.5 (≈ 23.7 µM) | 12.5 (≈ 23.7 µM) | 12.5 (≈ 23.7 µM) | 25 (≈ 47.5 µM) | O=c1cc(COc2cccc(OCc3cc(=O)oc4ccc5ccccc5c34)c2)c2c(ccc3ccccc32)o1 | 11 | 13 | 15 | 15 | 16 | 13 | 15 | 11 | 14 | MIC (Klebsiella pneumoniae): 12.5 µg/mL (≈ 23.7 µM); inhibition zone (IZ) (Pseudomonas aeruginosa): 17 mm; MIC (Pseudomonas aeruginosa): 12.5 µg/mL (≈ 23.7 µM); inhibition zone (IZ) (Bacillus subtilis): 12 mm; MIC (Bacillus subtilis): 25 µg/mL (≈ 47.5 µM); inhibition zone (IZ) (Staphylococcus aureus [6]): 12 mm; MIC (Staphylococcus aureus [6]): 25 µg/mL (≈ 47.5 µM) |
| 25 (≈ 69.6 µM) | inactive | inactive | inactive | 50 (≈ 139 µM) | 12.5 (≈ 34.8 µM) | 12.5 (≈ 34.8 µM) | 6.25 (≈ 17.4 µM) | 12.5 (≈ 34.8 µM) | 12.5 (≈ 34.8 µM) | 25 (≈ 69.6 µM) | CC(=O)Nc1cccc(OCc2cc(=O)oc3c2ccc2ccccc23)c1 | 12 | 11 | 16 | 18 | 19 | 16 | 17 | 13 | 15 | MIC (Klebsiella pneumoniae): 12.5 µg/mL (≈ 34.8 µM); inhibition zone (IZ) (Pseudomonas aeruginosa): 19 mm; MIC (Pseudomonas aeruginosa): 6.25 µg/mL (≈ 17.4 µM); inhibition zone (IZ) (Bacillus subtilis): 13 mm; MIC (Bacillus subtilis): 12.5 µg/mL (≈ 34.8 µM); inhibition zone (IZ) (Staphylococcus aureus [6]): 12 mm; MIC (Staphylococcus aureus [6]): 25 µg/mL (≈ 69.6 µM) |
| 6.25 (≈ 15.5 µM) | Active | Active | Active | 25 (≈ 62.1 µM) | 12.5 (≈ 31.1 µM) | 6.25 (≈ 15.5 µM) | 6.25 (≈ 15.5 µM) | 12.5 (≈ 31.1 µM) | 6.25 (≈ 15.5 µM) | 12.5 (≈ 31.1 µM) | CCN(CC)c1cccc(OCc2cc(=O)oc3ccc(Br)cc23)c1 | 19 | 14 | 18 | 21 | 20 | 16 | 20 | 15 | 18 | MIC (Klebsiella pneumoniae): 6.25 µg/mL (≈ 15.5 µM); inhibition zone (IZ) (Pseudomonas aeruginosa): 23 mm; MIC (Pseudomonas aeruginosa): 6.25 µg/mL (≈ 15.5 µM); inhibition zone (IZ) (Bacillus subtilis): 17 mm; MIC (Bacillus subtilis): 6.25 µg/mL (≈ 15.5 µM); inhibition zone (IZ) (Staphylococcus aureus [6]): 18 mm; MIC (Staphylococcus aureus [6]): 6.25 µg/mL (≈ 15.5 µM) |

The next lines start with the compound.

| Structure (SMILES) | MIC (Enterococcus faecalis) [µg/mL] | Activity (Aspergillus niger [1]) | Activity (Escherichia coli [2]) | Activity (Staphylococcus aureus [3]) | MIC (Fusarium oxysporum) [µg/mL] | MIC (Mucor fuscus) [µg/mL] | MIC (Penicillium chrysogenum) [µg/mL] | MIC (Aspergillus niger [4]) [µg/mL] | MIC (Candida albicans) [µg/mL] | MIC (Aspergillus fumigatus) [µg/mL] | MIC (Escherichia coli [5]) [µg/mL] | inhibition zone (IZ) (Enterococcus faecalis) [mm] | inhibition zone (IZ) (Fusarium oxysporum) [mm] | inhibition zone (IZ) (Mucor fuscus) [mm] | inhibition zone (IZ) (Penicillium chrysogenum) [mm] | inhibition zone (IZ) (Aspergillus niger [4]) [mm] | inhibition zone (IZ) (Candida albicans) [mm] | inhibition zone (IZ) (Aspergillus fumigatus) [mm] | inhibition zone (IZ) (Escherichia coli [5]) [mm] | inhibition zone (IZ) (Klebsiella pneumoniae) [mm] | other results |
| --- | --- | --- | --- | --- | --- | --- | --- | --- | --- | --- | --- | --- | --- | --- | --- | --- | --- | --- | --- | --- | --- |
| O=c1cc(COc2cccc(OCc3cc(=O)oc4ccc(Br)cc34)c2)c2cc(Br)ccc2o1 | 6.25 (≈ 10.7 µM) | Active | Active | Active | 25 (≈ 42.8 µM) | 12.5 (≈ 21.4 µM) | 12.5 (≈ 21.4 µM) | 6.25 (≈ 10.7 µM) | 6.25 (≈ 10.7 µM) | 12.5 (≈ 21.4 µM) | 12.5 (≈ 21.4 µM) | 19 | 13 | 18 | 18 | 19 | 17 | 18 | 14 | 17 | MIC (Klebsiella pneumoniae): 6.25 µg/mL (≈ 10.7 µM); inhibition zone (IZ) (Pseudomonas aeruginosa): 21 mm; MIC (Pseudomonas aeruginosa): 6.25 µg/mL (≈ 10.7 µM); inhibition zone (IZ) (Bacillus subtilis): 16 mm; MIC (Bacillus subtilis): 6.25 µg/mL (≈ 10.7 µM); inhibition zone (IZ) (Staphylococcus aureus [6]): 17 mm; MIC (Staphylococcus aureus [6]): 6.25 µg/mL (≈ 10.7 µM) |
| CCN(CC)c1cccc(OCc2cc(=O)oc3cc(C)ccc23)c1 | 6.25 (≈ 18.5 µM) | inactive | inactive | inactive | 50 (≈ 148 µM) | 12.5 (≈ 37 µM) | 12.5 (≈ 37 µM) | 12.5 (≈ 37 µM) | 25 (≈ 74.1 µM) | 12.5 (≈ 37 µM) | 50 (≈ 148 µM) | 15 | 7 | 16 | 18 | 18 | 8 | 15 | 9 | 14 | MIC (Klebsiella pneumoniae): 12.5 µg/mL (≈ 37 µM); inhibition zone (IZ) (Pseudomonas aeruginosa): 16 mm; MIC (Pseudomonas aeruginosa): 12.5 µg/mL (≈ 37 µM); inhibition zone (IZ) (Bacillus subtilis): 13 mm; MIC (Bacillus subtilis): 12.5 µg/mL (≈ 37 µM); inhibition zone (IZ) (Staphylococcus aureus [6]): 16 mm; MIC (Staphylococcus aureus [6]): 12.5 µg/mL (≈ 37 µM) |

— ChEMBL document CHEMBL3046568, “Synthesis, antimicrobial and DNA cleavage studies of some 4-aryloxymethylcoumarins obtained by reaction of 4-bromomethylcoumarins with bidentate nucleophiles” (2012)
